Patent publication US7250157B2, “Dermatological compositions and methods” (Applied Genetics Incorporated Dermatics, priority 1996, dated 2007)

Key:
[1] = system: Cloudman S91 mouse melanoma cell line; test: Melanin content of S91 cells after treatment with test compound; assay type: cell-based
Description: The Cloudman S91 mouse melanoma cell line was obtained from American Type Culture Collection (ATCC). […] For testing propylene glycol and analogues for induction of melanogenesis, S91 cells were plated at 10^5 cells/35 mm dish in 10% calf serum. […] Cells were cultured for 6 days at 37° C. in 5% CO2 in a humidified incubator. Following this treatment period, cells were examined microscopically and the portion of dedifferentiated and differentiated cells was estimated.
Following this microscopic examination, cells were detached from dishes by trypsin. The time required for detachment by trypsin was recorded as an additional indicator of the phenotypic effects of test compounds. For each treatment, a subsample of cells was counted to determine the effects of treatment compounds on cellular proliferation. The remainder of cells were used for determination of melanin content. […] Absorbance of standards and samples was measured at 475 nm. Melanin was expressed as pg melanin/cell.

[2] = system: Normal human epidermal melanocytes (NHEMs); test: Melanin induction in normal human epidermal melanocytes; assay type: cell-based
Description: Normal human epidermal melanocytes (NHEMs) were examined for induction of melanogenesis using cells and media from Clonetics Corporation (San Diego, Calif.). Cells were cultured exactly as specified by the supplier.

[3] = system: American short-haired guinea pigs; test: Topical melanogenesis (pigmentation rating) in guinea pigs; assay type: in vivo, guinea pig; set-up: Pigmentation Rating / Pigmentation Rating Background Corrected: scale not given here; conditions: for Pigmentation Rating Normalized to 1,2-PG / Pigmentation Rating Normalized to 1M / Pigmentation Rating Background Corrected / Pigmentation Rating: No Penetration Enhancer; for Pigmentation Rating Normalized to 1,2-PG / Pigmentation Rating Normalized to 1M / Pigmentation Rating Background Corrected: concentrations as E85; for Pigmentation Rating Background Corrected: corrected for Nair control; for Pigmentation Rating: sites c and d, 11.0M 2,3-M-2,3-BD, 11.3M 2-M-1,3-PG, 8.7M 1,2-cs-CPD, 4.0M 3,3-M-1,2-BD
Description: Compounds were tested for melanogenic activity in vivo by application to American short-haired guinea pigs. Treatment sites were created by removal of fur using Nair® brand depilatory. In the Table, the numbers presented are the relative melanogenesis rating (mean ±SE), and are arranged according to the relative location on the animal, with the head being to the left and the tail being to the right. Propylene glycol (PG=13.6M), 2,3-butanediol (2,3-BD=10.95M), and 1,2-cis-cyclopentanediol (1,2-cs-CPD=10.7M) were applied as full strength solutions. 3,3-dimethyl-1,2-butanediol (3,3-M-1,2-BD) was applied as a 4M solution dissolved in ethanol. Two weeks following cessation of treatments, the degree of pigmentation was subjectively rated according to the following scale:
In order to minimize the effects of dimunition of response from head to tails of animals, all future experiments were done using only treatment spots located towards the tails of animals (c and d in Table 7). Deemed as additionally beneficial, in this area of the animal differences of responsiveness to strong and weak inducers of pigmentation, as deduced from cell culture, were greatest. […] Pigmentation ratings were corrected for background (control treatment spots), normalized to 1M to account for the different amounts of each agent applied, and then normalized to results for 1,2-PG (Table 8). […] It is anticipated that further improvements in formulation will additionally improve responsiveness to 5-NBene-2,2-DM and other compounds in this invention.
In FIG. 5, a, b, c and d indicate treatment spots that transverse the anterior-posterior axis along the backs of guinea pigs.

[4] = system: tyrosinase activity in S91 mouse melanoma cells; test: Induction of tyrosinase activity in S91 cells; conditions: for Tyrosinase dpm/hr 10^3 Cells / Tyrosinase dpm/hr ug Protein: 300 mM PG-1,2, 25 mM 3,3-M-1,2-BD, 50 mM 1,2-cs-CPD, 5 mM 5-NBene-2,2-DM, 0.5 mM 2,3-Pyd, 0.1 mM IBMX, mean ±SE; for more tyrosinase activity than 5-norbornene-2,2-dimethanol: calculated from data in FIG. 5
Description: Compounds were examined for their ability to induce tyrosinase activity in S91 mouse melanoma cells. […] Following treatments, cells were trypsinized, counted by Coulter, pelleted by centrifugation at 1000×g, and analyzed for tyrosinase activity using modifications of previously described procedures (Pomerantz, S. H., 1966, J. Biol. Chem. 241:161-168; Jara, et al., 1988, Pigment Cell Res. 1: 332-339.). Briefly, cell pellets were solubilized by sonicating for 5 seconds in 600 ul 50 mM phosphate buffer pH 6.8 containing 0.5% Triton-X100, followed by vortexing, incubation on ice for 30 min, and then revortexing. From this, 200 ul aliquots were combined with 200 ul of reaction mixture containing either 75 uM tyrosine, 75 uM L-Dopa, and 2 uCi L-[3,5-^3H]Tyrosine in 50 mM NaPO4 pH 6.8 (L-Dopa+), or, 75 uM tyrosine, and 2 uCi L-[3,5-^3H]Tyrosine in 50 mM NaPO4 pH 6.8 (L-Dopa−) and incubated 1 hr at 37° C. Reactions were stopped by addition of 400 ul 10% activated charcoal in 0.1N HCl and incubation on ice for 15 min. This mixture was centrifuged at 17,300×g for 5 min, and 400 ul supernatant was then filtered through a 0.22 uM GV Durapore centifugal filter unit (Millipore) by centrifuging at 17,300×g for 5 min. Filtrate was added to 4 ml Fisher Plus scintillation fluid and counted on a Hewlett Packard scintillation counter. Tyrosinase activity was calculated as dpm/hr/ug protein and dpm/hr/10^3 cells. Each sample was analyzed with and without L-Dopa, a necessary cofactor for tyrosinase (Pomerantz, S. H., 1966, J. Biol. Chem. 241:161-168; McLane, et al., 1987, Biochem. Biophys. Res. Commun. 145:719-725). All reported tyrosinase values are exclusive of counts that occurred in buffer blanks and L-dopa negative aliquots. Protein was determined on aliquots of cell lysate, extracellular particulate lysate or media by the Bradford Coomassie Blue method (Bradford, 1967, Anal. Biochem. 72:248-254) using Bio-Rad Protein Assay Kit I.

[5] = system: Cloudman S91 mouse melanoma cell line; test: Cell count (proliferation, toxicity) of treated S91 cells; assay type: cell-based; conditions: for Cells (×10^6): 4 days, X ± SE, n = 3
Description: The Cloudman S91 mouse melanoma cell line was obtained from American Type Culture Collection (ATCC). Cells were cultured in Dulbecco's Modified Eagles Medium (DMEM) containing 10% calf serum, 2 mM L-glutamine, 10 U Penicillin/ml and 10 ug Streptomycin/ml according to a previously published protocol (Eller, et al., Proc. Natl. Acad. Sci. 93:1087-92. 1996). For testing propylene glycol and analogues for induction of melanogenesis, S91 cells were plated at 10^5 cells/35 mm dish in 10% calf serum. One day after plating, media was removed and replaced with media containing 2% calf serum and test compounds (Eller, et al., 1996). Cells were cultured for 6 days at 37° C. in 5% CO2 in a humidified incubator. Following this treatment period, cells were examined microscopically and the portion of dedifferentiated and differentiated cells was estimated. Previous studies have shown that dedifferentiated S91 cells have a rounded, spindly appearance while differentiated S91 cells have a flattened, cuboidal, multipolar and dendritic appearance (Orlow, et al., Exp. Cell Res. 191:209-218, 1990).
Following this microscopic examination, cells were detached from dishes by trypsin. The time required for detachment by trypsin was recorded as an additional indicator of the phenotypic effects of test compounds. For each treatment, a subsample of cells was counted to determine the effects of treatment compounds on cellular proliferation. The remainder of cells were used for determination of melanin content. Melanin was extracted from cells by vortexing for 15 min in 1N NaOH. Standards were prepared by dissolving melanin (Sigma) in 1 N NaOH (Eller, et al., 1996). Absorbance of standards and samples was measured at 475 nm. Melanin was expressed as pg melanin/cell.

[6] = system: nitric oxide in cell-free media from S91 cells; test: Nitric oxide in cell-free media from S91 cells (Greiss reagent); assay type: cell-based, mouse; conditions: 4 days
Description: In a related experiment, nitric oxide was measured in cell-free media from S91 cells following treatment with a range of concentrations of 2,3-cis/exo-pinanediol or 5-norbornene-2,2-dimethanol for 4 days. In biological fluids, nitric oxide is converted into nitrite and nitrate with seconds of production. Therefore, nitric oxide is measured by first converting nitrate to nitrite using nitrate reductase, followed by addition of Greiss reagent to detect nitrite as optical density at 550 nm (Moshage, et al., 1995, Clin. Chem. 41:892-896; Schmidt, et al., 1995, Biochemica 2:22)). […] Moreover, the relative melanogenic potency of 2,3-cis/exo-pinanediol and 5-norbornene-2,2-dimethanol shown in FIG. 5 paralleled the relative potency of these compounds with regards to induction of nitric oxide (Table 17). […] It follows that measurement of induction of nitric oxide, cGMP or PKG may provide biochemically relevant screening assays for compounds that may be melanogenic. Thus, the utilization of these assays to screen compounds for melanogenic activity is claimed in the present invention.

[7] = spot a (anterior), 8.7M 1,2-cis-CPD in 20% ETOH, 1M 5-NBene-2,2-DM in 8.5 M propylene glycol, 2% 2-pyrrolidone, 20% ETOH, 1M 2,3-cs/ex PD in 50% ETOH
[8] = spot d (posterior), formulations as E220
[9] = range of concentrations up to a toxic dose

Row | Structure (SMILES) | Concentration Required for ≧2-fold Melanin Induction in S91 Cells [1] [mM] | Concentration Required for ≧1.5-fold Melanin Induction in NHEMs [2] [mM] | Pigmentation Rating Normalized to 1,2-PG [3] | Pigmentation Rating Normalized to 1M [3] | Pigmentation Rating Background Corrected [3] | Pigmentation Rating ([3]; 13.61M 1,2-PG) | Pigmentation Ratings (X ± SE; n = 6; scale 0 to +4) [3, 7] | Pigmentation Ratings (X ± SE; n = 6; scale 0 to +4) ([3]; spot b, formulations as E220) | Pigmentation Ratings (X ± SE; n = 6; scale 0 to +4) ([3]; spot c, formulations as E220) | Pigmentation Ratings (X ± SE; n = 6; scale 0 to +4) [3, 8] | Tyrosinase dpm/hr 10^3 Cells [4] [dpm/hr/10^3 Cells] | Tyrosinase dpm/hr ug Protein [4] [dpm/hr/ug Protein] | other results
1 | CC(C)(O)C(C)(C)O [2,3-M-2,3-BD, 2,3-dimethyl-2,3-butanediol] | 25 | 50 | 1.0 ± 0.6 | 0.015 ± 0.008 | 0.17 ± 0.09 | 0.25 ± 0.14 | – | – | – | – | – | – | pigmentation response versus control (Nair or 2% 2P treated) spots ([3]; sites towards tail, 13.61M 1,2-PG, 10.6M 1,2-PG/2% 2P, 11M 2,3-dimethyl-2,3-butanediol): not significantly different from control
2 | O[C@@H]1CCC[C@@H]1O [1,2-cs-CPD, 1,2-cis-cyclopentanediol] | 10 | 50 | 13.5 ± 1.9 | 0.202 ± 0.029 | 1.75 ± 0.25 | 1.89 ± 0.27 | 1.83 ± 0.17 | 1.92 ± 0.43 | 1.92 ± 0.20 | 1.58 ± 0.24 | 276 ± 16 | 925 ± 53 | greater melanogenesis than PG applied at similar body locations ([3]; guinea pig, 5 days): 5.5 fold; relative melanogenesis rating (mean ±SE), scale 0-4 ([3]; site d (tail), 25 μl twice per day for 5 days, rated two weeks after, full strength solutions): 1.83 ± 0.33^2
3 | Oc1cccnc1O [2,3-Pyridinediol, 2,3-pyridinediol] | 0.1 | 0.2 | – | – | – | – | – | – | – | – | 142 ± 8 | 160 ± 19 | toxicity to S91 cells ([5]; levels higher than 500 uM): toxic
4 | CC1(C)[C@@H]2C[C@H]1[C@@](C)(O)[C@@H](O)C2 (relative stereo) [2,3-cs/ex-PD, 2,3-cis/exo-pinanediol ([1R,2R,3S,5R]-[−]-pinanediol)] | – | – | – | – | – | – | 2.00 ± 0.20 | 1.75 ± 0.17 | 1.75 ± 0.17 | 1.04 ± 0.32 | – | – | Cells (×10^6) ([5]; 0.5 mM): 0.325 ± 0.002 ×10^6; Cells (×10^6) ([5]; 1 mM): 0.258 ± 0.010 ×10^6; Cells (×10^6) ([5]; 2.5 mM): 0.099 ± 0.014 ×10^6; Cells (×10^6) ([5]; 5 mM): 0.064 ± 0.006 ×10^6; nmoles NO/10^6 Cells ([6]; 0.5 mM): 10.9 ± 0.2 nmoles NO/10^6 Cells; uM NO ([6]; 0.5 mM): 3.54 ± 0.06 µM; nmoles NO/10^6 Cells ([6]; 1 mM): 24.5 ± 5.4 nmoles NO/10^6 Cells; uM NO ([6]; 1 mM): 6.36 ± 1.56 µM; nmoles NO/10^6 Cells ([6]; 2.5 mM): 131 ± 15 nmoles NO/10^6 Cells; uM NO ([6]; 2.5 mM): 12.6 ± 0.5 µM; nmoles NO/10^6 Cells ([6]; 5 mM): 174 ± 15 nmoles NO/10^6 Cells; uM NO ([6]; 5 mM): 11.0 ± 1.1 µM; Fold Induction of Tyrosinase Relative to Controls ([4]; 0.5 mM (Table 19)): 5.1X; more tyrosinase activity than 5-norbornene-2,2-dimethanol ([4]; 500 uM): 2.6 fold; Fold Induction of Tyrosinase Relative to Controls ([4]; 1 mM (Table 19)): 17.6X; more tyrosinase activity than 5-norbornene-2,2-dimethanol ([4]; 1 mM): 5.2 fold; Fold Induction of Tyrosinase Relative to Controls ([4]; 2.5 mM (Table 19)): 119X; more tyrosinase activity than 5-norbornene-2,2-dimethanol ([4]; 2.5 mM): 7.3 fold; Fold Induction of Tyrosinase Relative to Controls ([4]; 5 mM (Table 19)): 50.6X; relative melanogenic potency in S91 cells (in words) ([4]; Table 19 data): only slightly more potent than (1S, 2S, 3R, 5S)-(+)-pinanediol
5 | O=C[C@H](O)[C@H](O)[C@H](O)CO [D-ribose] | – | – | – | – | – | – | – | – | – | – | – | – | melanogenesis in S91 cells (≧2-fold increase = significant) [1, 9]: did not induce significant (≧2-fold increase) melanogenesis; melanin induction in NHEMs (in words) [2, 9]: inactive
